Source: patent publication US12065427B2, “Heterocyclic compounds capable of activating STING” (BOEHRINGER INGELHEIM INTERNATIONAL GMBH, priority 2021, dated 2024)

What was measured:
STING AQ-variant = biological target: T1, STING AQ-variant (Homo sapiens, UniProt Q86WV6, G230A/H232R/R293Q); assay: IRF-inducible SEAP reporter assay in THP1-Blue ISG cells, STING AQ-variant; type: cell-based; details: 24 hours incubation
T1 construct: expressed in transfected cells; host or cells: THP1-Blue ISG hSTING KO clone, retroviral MSCV-ires-GFP-Blasti
Excerpt: (§1) In Vitro Cytokine Induction Measured Via Activation of an Interferon Regulatory Factor Inducible Reporter Gene
(§2) Activation of the STING protein expressed in cell lines results in an increase of interferon production. By the stable integration of an interferon regulatory factor (IRF)-inducible SEAP gene (secreted embryonic alkaline phosphatase) reporter construct the functional interferon signaling pathway can be monitored. Using Invivogen's THP1-Blue™ ISG colorimetric enzyme assay and a suitable optical density (OD) reader the activity of SEAP can be detected and quantified. This technique could be used to characterize pharmacological modification of the STING pathway.
(§3) Several single nucleotide polymorphisms have been identified in the human STING gene. To determine the activity of the above described compounds, THP1-Blue™ ISG reporter cell lines expressing the different human STING variants have been generated. To do so, the endogenous human STING was first deleted using the CRISPR/CAS9 system: THP1-Blue ISG cells were electroporated with ALL-IN-ONE CRISPR plasmids targeting the STING gene (purchased from Sigma encoding the gRNA and GFP as a reporter gene for successful transduction). GFP positive cells then were sorted 24 h post transfection and expanded. Cells were then dispersed in semisolid methocel medium to allow single cell clone isolations. Clones were then screened for cGAMP responsiveness using the Quanti-Blue™ reporter assay. Non-responsive clones were subsequently analysed for STING loss by western blotting and sequencing of the STING locus.
(§4) For the overexpression of the human STING variants, a confirmed THP1-Blue™ ISG hSTING KO clone was transduced with individual retroviral plasmids (MSCV-ires-GFP-Blasti) encoding the allelic variants of hSTING (WT (H232R), HAQ, R232H, AQ and R293Q). Transduced cells were sorted for different levels of GFP fluorescence and STING allele expression was analysed by western blot.
(§5) Measurements of SEAP activity were performed in THP1-Blue™ ISG cells stably expressing the different human STING isoforms and the IRF-inducible SEAP reporter construct. Cells were cultivated in RPMI1640 medium with 10% fetal calf serum, 50 μg/ml Penicillin-Streptomycin, 100 μg/ml Zeocin, and 100 μg/ml Normocin in a 37°, 95% humidity and 5% CO2 incubator.
(§6) In preparation for the assay, the cells were distributed into the assay plates with a density of 10000 cells/15 μL per well. Compounds were prepared by an 8 point serial dilution in 50% aqueous DMSO and a final dilution step into medium to ensure a final DMSO concentration of 0.5% in the assay. 5 μL of diluted compounds were added to the plates, followed by a 24 hours incubation at 37° C.
(§7) At the day of the assay, 75 μl per well of Quanti-Blue™ reagent was added to all wells of the plate and the plate was incubated another 30 minutes at 37° C. The OD at 620 nm was measured on the EnVision reader (PerkinElmer).
(§8) EC50 values and Hill slopes were derived from 8-point four parametric non-linear curve fittings with the Megalab software (Boehringer Ingelheim) using the OD at 620 nm.
(§9) Data of EC50 values can be found in tables 2a-2e.
Data of EC50 values on STING AQ-variant can be found in table 2e: […]

STING R293Q-variant = biological target: T2, STING R293Q-variant (Homo sapiens, UniProt Q86WV6, H232R/R293Q); assay: IRF-inducible SEAP reporter assay in THP1-Blue ISG cells, STING R293Q-variant; type: cell-based; details: 24 hours incubation
T2 construct: expressed in transfected cells; host or cells: THP1-Blue ISG hSTING KO clone, retroviral MSCV-ires-GFP-Blasti
Excerpt: as §1, §2, §3, §4, §5, §6, §7, §8, §9
Data of EC50 values on STING R293Q-variant can be found in table 2d: […]

STING H232R-variant = biological target: T3, STING H232R-variant (Homo sapiens, UniProt Q86WV6, H232R); assay: IRF-inducible SEAP reporter assay in THP1-Blue ISG cells, STING H232R-variant; type: cell-based; details: STING H232R-variant (WT), 24 hours incubation
T3 construct: expressed in transfected cells; host or cells: THP1-Blue ISG hSTING KO clone, retroviral MSCV-ires-GFP-Blasti
Excerpt: as §1, §2, §3, §4, §5, §6, §7, §8, §9
Data of EC50 values on STING H232R-variant can be found in table 2b: […]

in vitro = details: human, Caco-2, pH 7.4
Procedure: Cellular Permeability Measurements
Caco-2 cells were obtained from Leibniz Institute DSMZ-German Collection of Microorganisms and Cell Cultures (Braunschweig, Germany) and cultured in DMEM (Dulbecco's modified Eagle medium) containing (in final concentrations) 10% FCS (fetal calf serum), 1% NEAA (non-essential amino acids), 2 mM Glutamin, 100 U/mL Penicillin and 100 μg/mL Streptomycin. Caco-2 cells were seeded either onto 24-well Transwell inserts (Corning, #3379) for bidirectional permeability assays at a density of 160,000 cells/cm^2 and cultured for 3 weeks, with media change on every second day.
For bidirectional permeability assays 10 mM DMSO stock solutions were diluted in transport buffer (final concentrations: 128.13 mM NaCl, 5.36 mM KCl, 1 mM MgSO4, 1.8 mM CaCl2, 4.17 mM NaHCO3, 1.19 mM Na2HPO4, 0.41 mM NaH2PO4, 15 mM 2-[4-(2-hydroxyethyl)piperazin-1-yl]ethanesulfonic acid (HEPES), 20 mM glucose, pH 7.4) containing 0.25% bovine serum albumin to a final concentration of 10 μM of the test compounds and added to the apical or basal compartment. Cells were incubated with the compounds for up to 2 h. Samples from the opposite compartment were taken at different timepoints.
Compound concentrations in the compartments were quantified using a RapidFire-based high-throughput HPLC/MS/MS system (high performance liquid chromatography/mass spectrometry; Bio-Cius) that was customized to a fully automated and flexible platform, termed RIAS. In this modified setup, the sample was aspirated by a vacuum pump into a 10 μL sample loop for 250 ms and flushed onto a C4 cartridge (3.8 μL bed volume; Bio-Cius) with the aqueous mobile phase (99.9% water, 0.09% formic acid, and 0.01% TFA; flow rate 1.5 mL/min). Prior to bioanalysis samples were spiked with internal standard solution and diluted with acetonitrile (ACN) for protein precipitation. Measurement was operated in multiplereaction monitoring (MRM) mode. Quantification was performed using external calibration. A solid-phase extraction step retained the analyte for 3000 ms while interfering matrix (e.g., buffer components) was removed. With a simple step gradient, the analyte was back-eluted from the cartridge for 3,000 ms with the organic mobile phase (99.9% acetonitrile/methanol [1:1, v:v], 0.09% formic acid, and 0.01% TFA) and flushed into the mass spectrometer at a flow rate of 1.25 mL/min. Afterwards, the cartridge was re-equilibrated with the aqueous mobile phase for 500 ms (flow rate 1.5 mL/min).
Apparent permeability coefficients in the apical to basal direction (Papp,AB) and in the basal to apical direction (Papp,BA) and efflux ratios were calculated as follows: Papp,AB=QAB/(C0·s·t) Papp,BA=QBA/(C0·s·t) Efflux ratio=Papp,BA/Papp,AB
where Q is the amount of compound recovered in the receiver compartment after the incubation time t, C0 the initial compound concentration given to the donor compartment, and s the surface area of the Transwell inserts. […] In addition, transepithelial electrical resistance (TEER) values are measured for each plate before the permeability assay, and total recovery in donor and receiver compartments was determined for each compound.

[1] = system: Human STING (hSTING, residues 155-341); assay: Interaction with hSTING as determined by Differential Scanning Fluorimetry (DSF); type: binding; details: 100 μM test compounds, 5 μM target protein
Procedure: Interaction with hSTING as Determined by Differential Scanning Fluorimetry (DSF)
In DSF, the temperature at which a protein unfolds, also called the melting temperature Tm, is measured by changes in fluorescence of a dye that binds to the hydrophobic parts of the protein. Tm shifts upon binding of a small molecule are correlated with the binding affinity of this small molecule. As target protein, Human STING (hSTING, residues 155-341, MW: 21578.4 Da; protein stock solution: c=1302 μM stock solution in 20 mM Tris, 100 mM NaCl, 2 mM TCEP pH 8.8) was used, as assay buffer 20 mM Tris, 150 mM NaCI pH7.5 was added where and as necessary.
Final concentrations of components in assay: 100 μM test compounds, 5 μM target protein, “5×” SYPR Orange (from stock solution SYPRO orange solution in DMSO (invitrogen cat.-no. S6650-500 ul), concentration “5000×”)
1) Dilutions of compound stock solutions (10 mM in DMSO) were prepared in assay buffer (20 mM Tris, 150 mM NaCl; pH7.5)
2) 5 μl fluorescent dye stock solution (5000×SYPRO Orange in DMSO) was mixed with 19 μl target protein (1302 μM) and 976 μl assay buffer.
3) 2 μl of this protein-dye-mixture (25×SYPRO Orange and 25 μM Protein) was added to 8 μl diluted compound solution as prepared in step 1. Final volume was 10 μl.
4) With every 20 compounds, two negative controls were measured.
5) The plates were prepared for duplicate measurement and centrifuged for 2 min at 1000 g.
6) For the measurement, a CFX384 Real-Time System (Bio-Rad) was used. The run consisted of 140 cycles with 0.5° C./cycle (temperature ramp 15 s/cycle, 25° C. to 95° C.).
Data analysis: The melting curves were processed in Bio-Rad CFX Manager. Peak type was set to “negative”. Two replicates of TM (melting temperature) measurements were averaged and the standard deviation was calculated.

STING HAQ-variant = biological target: T4, STING HAQ-variant (Homo sapiens, UniProt Q86WV6, G230A/H232R/R293Q/R71H); assay: IRF-inducible SEAP reporter assay in THP1-Blue ISG cells, STING HAQ-variant; type: cell-based; details: STING HAQ-variant (parental or re-introduced), 24 hours incubation
T4 construct: parental THP1-Blue™ ISG cell lines (which express endogenously HAQ); host or cells: THP1-Blue ISG (parental, endogenous HAQ) or STING-KO clone re-transduced with HAQ (MSCV-ires-GFP-Blasti)
Excerpt: as §1, §2, §3, §4, §5, §6, §7, §8, §9
Data of EC50 values on STING HAQ-variant can be found in table 2a. Shown data below were either derived from the parental THP1-Blue™ ISG cell lines (which express endogenously HAQ) or from genetically engineered THP1-Blue™ ISG cell lines in which first STING has been knocked-out and the HAQ specific STING isoform has been re-introduced as described above.

STING R232H-variant = biological target: T5, STING R232H-variant (Homo sapiens, UniProt Q86WV6); assay: IRF-inducible SEAP reporter assay in THP1-Blue ISG cells, STING R232H-variant; type: cell-based; details: 24 hours incubation
T5 construct: expressed in transfected cells; host or cells: THP1-Blue ISG hSTING KO clone, retroviral MSCV-ires-GFP-Blasti
Excerpt: as §1, §2, §3, §4, §5, §6, §7, §8, §9
Data of EC50 values on STING R232H-variant can be found in table 2c: […]

T5 sequence (Q86WV6 whole entry, stated change not applied): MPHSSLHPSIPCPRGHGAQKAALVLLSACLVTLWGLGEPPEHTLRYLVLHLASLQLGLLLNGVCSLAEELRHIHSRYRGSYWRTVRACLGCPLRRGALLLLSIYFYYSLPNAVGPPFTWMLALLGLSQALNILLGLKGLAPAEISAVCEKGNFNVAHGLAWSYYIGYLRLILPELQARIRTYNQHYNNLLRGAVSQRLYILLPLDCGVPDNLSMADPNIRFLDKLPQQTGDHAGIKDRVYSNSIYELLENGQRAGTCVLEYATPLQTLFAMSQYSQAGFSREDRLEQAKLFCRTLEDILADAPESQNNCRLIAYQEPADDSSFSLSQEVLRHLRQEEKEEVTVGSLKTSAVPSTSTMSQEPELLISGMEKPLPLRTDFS
T2 sequence (Q86WV6 whole entry H232R/R293Q): as the sequence (Q86WV6 whole entry, stated change not applied) above, with H232R, R293Q counted along it
T3 sequence (Q86WV6 whole entry H232R): as the sequence (Q86WV6 whole entry, stated change not applied) above, with H232R counted along it
T1 sequence (Q86WV6 whole entry G230A/H232R/R293Q): as the sequence (Q86WV6 whole entry, stated change not applied) above, with G230A, H232R, R293Q counted along it
T4 sequence (Q86WV6 whole entry R71H/G230A/H232R/R293Q): as the sequence (Q86WV6 whole entry, stated change not applied) above, with R71H, G230A, H232R, R293Q counted along it

Row | SMILES | EC50 (STING AQ-variant) | EC50 (STING R293Q-variant) | EC50 (STING H232R-variant) | Papp A→B at 10 μM (in vitro) | efflux ratio at 10 μM (in vitro) | thermal shift (ΔTm) [1] | EC50 (STING HAQ-variant) | EC50 (STING R232H-variant)
1 | Cc1cc2c(-c3nn(-c4ccc(N5CCC(C(=O)O)CC5)nc4)c4c(C)cccc34)cccc2cn1 [Example #61, 1-{5-[7-methyl-3-(3-methylisoquinolin-5-yl)-1H-indazol-1-yl]pyridin-2-yl}piperidine-4-carboxylic acid] | 3000 nM | 2200 nM | 2900 nM | 10 ×10⁻⁶ cm/s | 1.1 | 16 K | 3000 nM | 2900 nM
2 | Cc1cccc2c(-c3cccc4nn(C)cc34)nn(-c3ccc(N4CCC5(CC4)C(=O)N(C)C(=O)N5C)nc3)c12 [compound 9, 8-(5-{2′,7-dimethyl-1H,2′H-[3,4′-biindazol]-1-yl}pyri-din-2-yl)-1,3-dimethyl-1,3,8-triazaspiro[4.5] decane-2,4-dione] | 700 nM | 600 nM | 100 nM | 23 ×10⁻⁶ cm/s | 0.3 | 23 K | 1000 nM | 200 nM
3 | Cc1cccc2c(-c3cccc4nn(C)cc34)nn(-c3ccc(N4CCC5(CC4)CNC5=O)nc3)c12 [compound 10, 7-(5-{2′,7-dimethyl-1H,2′H-[3,4′-biindazol]-1-yl}pyri-din-2-yl)-2,7-dia-zaspiro[3.5]nonan-1-one] | 2200 nM | 2100 nM | 400 nM | 26 ×10⁻⁶ cm/s | – | 20 K | 2100 nM | 500 nM
4 | CC(=O)N1CCN(c2ccc(-n3nc(-c4cccc5nn(C)cc45)c4cccc(C)c43)cn2)CC1 [compound 15, 1-[4-(5-{2′,7-dimethyl-1H,2′H-[3,4′-biindazol]-1-yl}pyridin-2-yl)piperazin-1-yl]ethan-1-one] | 700 nM | 700 nM | 200 nM | 26 ×10⁻⁶ cm/s | 0.5 | 21 K | 1000 nM | 200 nM
5 | Cc1cccc2c(-c3cccc4nn(C)cc34)nn(-c3ccc(N4CCOCC4)nc3)c12 [compound 17, 2′,7-dimethyl-1-[6-(mor-pholin-4-yl)pyridin-3-yl]-1H,2′H-3,4′-biindazole] | 5700 nM | 6100 nM | 2100 nM | 26 ×10⁻⁶ cm/s | 0.3 | 16 K | 6800 nM | 2000 nM
6 | Cc1cccc2c(-c3cccc4nn(C)cc34)nn(-c3ccc(N4CCC(S(C)(=O)=O)CC4)nc3)c12 [compound 18, 1-[6-(4-methanesulfonylpi-peridin-1-yl)pyridin-3-yl]-2′,7-dimethyl-1H,2′H-3,4′-biindazole] | 600 nM | 700 nM | 200 nM | 36 ×10⁻⁶ cm/s | 0.3 | 22 K | 700 nM | 200 nM
7 | Cc1cccc2c(-c3cccc4nn(C)cc34)nn(-c3ccc(N4CC5(CCN(C=O)C5)C4)nc3)c12 [compound 53, 2-(5-{2′,7-dimethyl-1H,2′H-[3,4′-biinda-zol]-1-yl}pyridin-2-yl)-2,6-dia-zaspiro[3.4]octane-6-carbaldehyde] | 1900 nM | 1600 nM | 700 nM | 50 ×10⁻⁶ cm/s | 0.2 | 20 K | 1700 nM | 700 nM
8 | CC(=O)NC1C2CN(c3ccc(-n4nc(-c5cccc6nn(C)cc56)c5cccc(C)c54)cn3)CC21 (stereo not drawn) [compound 55, N-[3-(5-{2′,7-dimethyl-1H,2′H-[3,4′-biindazol]-1-yl}pyridin-2-yl)-3-azabicyclo[3.1.0]hexan-6-yl]acetamide] | 1200 nM | 1700 nM | 800 nM | 21 ×10⁻⁶ cm/s | 1 | 20 K | 2300 nM | 700 nM
9 | Cc1cccc2c(-c3cccc4nn(C)cc34)nn(-c3ccc(N4CCC(NS(C)(=O)=O)CC4)nc3)c12 [compound 56, N-[1-(5-{2′,7-dimethyl-1H,2′H-[3,4′-biindazol]-1-yl}pyridin-2-yl)piperidin-4-yl]methanesulfonamide] | 2100 nM | 2200 nM | 400 nM | 21 ×10⁻⁶ cm/s | 0.6 | 20 K | 3000 nM | 800 nM
10 | Cc1cc2c(-c3nn(-c4ccc(N5CC6C(C5)C6C(=O)O)nc4)c4c(C)cccc34)cccn2n1 (stereo not drawn) [compound 68, 3-[5-(7-methyl-3-{2-methylpyrazolo[1,5-a]pyr-idin-4-yl}-1H-indazol-1-yl)pyridin-2-yl]-3-azabicy-clo[3.1.0]hexane-6-car-boxylic acid] | 800 nM | 800 nM | 700 nM | 16 ×10⁻⁶ cm/s | 1 | 24 K | 1600 nM | 700 nM
11 | Cc1c(CO)ccc2c(-c3cccc4nn(C)cc34)nn(-c3ccc(N4CCC(S(C)(=O)=O)CC4)nc3)c12 [compound 75, {1-[6-(4-methanesul-fonylpiperidin-1-yl)pyridin-3-yl]-2′,7-dimethyl-1H,2′H-[3,4′-biindazol]-6-yl}meth-anol] | 100 nM | 100 nM | 30 nM | 9 ×10⁻⁶ cm/s | 4.8 | 26 K | 100 nM | 50 nM
